Reference: PubChem BioAssay AID1996
Values after ≈ are worked out from the molar mass of the structure shown.

Settings: buffer; pH 7.4; 200.0 µM

Row | Structure (SMILES) | solubility kinetic [µg/mL]
1 | COc1ccc(CN2CC(C(N)=O)Oc3ccccc32)cc1F (stereo unspecified) | 35.6 (≈ 113 µM)
2 | Cc1cc(-c2nc(-c3ccncc3)no2)ccc1[N+](=O)[O-] | 1.8 (≈ 6.38 µM)
3 | Cc1ccnc(NC(=O)c2oc3ccccc3c2C)c1 | 3.6 (≈ 13.5 µM)
4 | CCn1c(SCC(=O)Nc2ccccc2OC)nc(O)cc1=O | 47.7 (≈ 142 µM)
5 | Cc1ccc2c(CN3CCOCC3)cc(=O)oc2c1C | > 41
6 | CCCOc1ccccc1/C=C1/C(=O)ON=C1C | 23.3 (≈ 95 µM)
7 | CC(=O)Nc1nc2ccccc2n1Cc1ccc(C)cc1 | 8.1 (≈ 29 µM)
8 | O=C(CSc1ncn[nH]1)NCCc1ccc(Cl)cc1 | > 44.5
9 | O=C(CN1C(=O)NC2(CCCCCC2)C1=O)c1ccccc1 | > 45.1
10 | CN1C(=O)c2cccc3c(S(=O)(=O)Nc4ccccc4F)ccc1c23 | 9.6 (≈ 26.9 µM)
11 | CCc1nc(SCC(=O)NC2CC2)c2c(C)c(C)sc2n1 | 2.5 (≈ 7.78 µM)
12 | Cc1c(N)cccc1-n1cccc1 | 20 (≈ 116 µM)
13 | Cc1ccc(C)c(OCCCNCc2ccccc2)c1.O=C(O)C(=O)O | > 53.9
14 | CN1CCN(c2cc3c(cc2F)c(=O)c(C(=O)O)cn3CCF)CC1 | > 52.7
15 | CC(=O)Nc1ccc(SCC(=O)NCC2(N3CCCCC3)CCCCC2)cc1 | > 60.5
16 | COc1cccc2[nH]c3c(=O)[nH]cnc3c12 | > 32.3
17 | COc1ccccc1Oc1ccc(NC(=O)Cc2ccccc2)cc1 | < 0.7
18 | Cc1ccc(C)c(NC(=S)N2CCN(S(C)(=O)=O)CC2)c1 | > 49.1
19 | COCc1cc(SC2CCCCC2)nc(C)n1 | 11.7 (≈ 46.4 µM)
20 | O=C(NC1CCOc2ccccc21)c1ccc(Cl)nc1 (stereo unspecified) | > 43.3
21 | COc1cccc(CN(C)Cc2c(O)ccc3ccccc23)c1 | 29.6 (≈ 96.3 µM)
22 | O=S(=O)(c1ccc(Cl)nc1)N1CCOCC1 | > 39.4

Row | Structure (SMILES) | solubility kinetic [µg/mL]
23 | O=C(Nc1cccc(C(F)(F)F)c1)Nc1ccon1 | 9.9 (≈ 36.5 µM)
24 | Cc1ccc(CC2CC(=O)N(c3nc4ccccc4s3)C2=O)cc1 (stereo unspecified) | 10.3 (≈ 30.6 µM)
25 | COc1ccc2nc(NC(=O)c3ccc([N+](=O)[O-])o3)sc2c1 | 2 (≈ 6.26 µM)
26 | O=C(CCCCl)N1CCc2[nH]c3ccccc3c2C1 | > 41.5
27 | CCOC(=O)c1cnc(Nc2ccccc2)nc1C(F)(F)F | 2.1 (≈ 6.75 µM)
28 | O=C(O)c1cc2c(=O)c3ccccc3oc2nc1C(F)(F)F | > 46.4
29 | O=C(c1cc(-c2ccccc2O)on1)N1CCCCCC1 | 2.6 (≈ 9.08 µM)
30 | CCNc1cc(N2CCN(C)CC2)ccc1[N+](=O)[O-] | > 39.6
31 | Cn1cccc1C(=O)NCc1ccc(Cl)cc1 | > 37.3
32 | O=C(Nc1ccccc1-c1ccccc1)c1ccccc1Br | 33.7 (≈ 95.7 µM)
33 | CC(CCN1CCN(c2ccccc2)CC1)c1ccccc1.Cl (stereo unspecified) | 29.7
34 | COc1cc2c(cc1OC)C(C)N(C(=O)c1c(C)noc1C)CC2 (stereo unspecified) | 2.7 (≈ 8.17 µM)
35 | O=C(CN1C(=O)NC(CCc2ccccc2)C1=O)Nc1ccccc1C(F)(F)F (stereo unspecified) | 5.2 (≈ 12.8 µM)
36 | Cn1c(=O)c2[nH]c(SCC(=O)c3ccc(F)cc3)nc2n(C)c1=O | 7.5 (≈ 21.5 µM)
37 | COc1ccc(NC(=O)c2ccc3c(c2)OCCO3)cc1OC | 10.3 (≈ 32.7 µM)
38 | CCOC(=O)N1CCN(C(c2cccnc2)c2ccc3cccnc3c2O)CC1 (stereo unspecified) | 28 (≈ 71.3 µM)
39 | O=C(Nc1cccc(/C=C/c2ccccn2)c1)c1cc(Cl)ccn1 | 2.1 (≈ 6.25 µM)
40 | COc1ccc(N2CCN(c3cc(C)c4ccc(C)cc4n3)CC2)cc1 | 1.1 (≈ 3.17 µM)
41 | CC(=O)N1CCN(c2nnc(-c3ccc(C)cc3)c3ccccc23)CC1 | > 52
42 | Cc1ccc(C(=O)CN2C(=O)NC3(CCCCC3C)C2=O)s1 (stereo unspecified) | 33.2 (≈ 104 µM)
43 | O=C(COC(=O)c1cccs1)NCCCc1ccccc1 | 20.1 (≈ 66.3 µM)
44 | COc1ccc(C2NC(c3ccc(OC)cc3)C(C)C(=O)C2C)cc1 (stereo unspecified) | 12.2 (≈ 35.9 µM)

Row | Structure (SMILES) | solubility kinetic [µg/mL]
45 | C/C(=C\c1cccc(Cl)c1)C(=O)c1c(C)cc(C)[nH]c1=O | > 45.3
46 | CCNC(=S)Nc1cccc(S(=O)(=O)NC2=NCCC2)c1 | 37.9 (≈ 116 µM)
47 | Cc1ccc2c(c1)C(=O)OC1(O)C3C4C=CC(C4)C3C(=O)N21 (stereo unspecified) | > 44.6
48 | CC(C)CNC(C)C(=O)Nc1ccc(S(N)(=O)=O)cc1 (stereo unspecified) | > 44.9
49 | Cc1ccc(OCC(=O)N2CCN(C(=O)c3cccc(F)c3)CC2)cc1 | > 53.5
50 | COCC1CCN(C(=O)c2oc3c(F)cccc3c2C)C1 (stereo unspecified) | 37.3 (≈ 128 µM)
51 | Br.CC(C)CC(N)C(=O)OCc1ccc([N+](=O)[O-])cc1 (stereo unspecified) | > 52.1
52 | O=C1c2ccccc2C(=O)N1C1CCCCC1 | 1.3 (≈ 5.67 µM)
53 | Cc1nc(CN(C)Cc2nc(Cc3cccc(F)c3)no2)cs1 | > 49.9
54 | COc1cc(OC)cc(C(=O)NCC(=O)NCc2ccccn2)c1 | > 49.4
55 | COC(=O)CN1C(=O)N/C(=C/c2cc3c(cc2OC)OCO3)C1=O | 6.3 (≈ 18.8 µM)
56 | Cn1c(-c2ccccc2)c[n+]2c1CCCCC2.[Br-] | > 46.1
57 | CC1(C)C(C(=O)N2CCN(c3ccc(Cl)cc3)CC2)C1(C)C | 0.5 (≈ 1.56 µM)
58 | CCOc1ccccc1NC(=O)NCc1ccco1 | 9.8 (≈ 37.6 µM)
59 | CCc1ccccc1NC(=O)c1cc(-c2cccs2)on1 | 0.8 (≈ 2.68 µM)
60 | O=C(COC(=O)Cc1ccccc1)NCc1ccc2c(c1)OCO2 | > 49.1
61 | O=C(NCCNC(=O)c1ccccn1)c1cccc(F)c1 | 41.7 (≈ 145 µM)
62 | Cc1ccc(CNc2ccc3c(c2)ncn3C(C)C)cc1 | > 41.9
63 | COC(=O)c1ccc(CNC(=O)COC(=O)c2cc(Cl)ccc2O)cc1 | 7.1 (≈ 18.8 µM)
64 | CCO/C=C1/C(=O)N(c2ccc(OC)cc2)C(=O)c2ccccc21 | > 48.5
65 | Cc1ccc(S(=O)(=O)Nc2ccncc2)c(C)c1.Cl | > 44.8
66 | O=C(NCc1ccc2c(c1)OCO2)c1ccc(Br)o1 | > 48.6

Row | Structure (SMILES) | solubility kinetic [µg/mL]
67 | CO[C@H]1O[C@H](C)[C@@H](O)C[C@H]1NC(=O)OCc1ccccc1 | > 44.3
68 | CCc1noc(C)c1C(=O)NCCc1ccc(F)cc1 | > 41.4
69 | N#C/C(=N\O)c1nc2ccccc2s1 | > 30.5
70 | C/C(=N/NC(=O)c1ccncc1)c1ccccc1 | > 35.9
71 | CCOc1ccc(C2NC(=O)Cc3cc(OC)c(OC)cc32)cc1 (stereo unspecified) | > 49.1
72 | CCc1c(C(=O)Nc2ccc(C)c(C)c2)[nH]c(C)c1C(C)=O | 3 (≈ 10.1 µM)
73 | CCOC(=O)C1CCCN(CCc2ccccc2)C1 (stereo unspecified) | 32.1 (≈ 123 µM)
74 | Cc1cc(C)cc(OCCn2ccnc2)c1 | 29.3 (≈ 135 µM)
75 | O=C(CCCN1CCC2(CC1)C(=O)NCN2c1ccccc1)c1ccc(F)cc1 | 50.1 (≈ 127 µM)
76 | Cc1ccc2c(c1)C1C[N+](C)(CC(=O)c3ccc(Cl)cc3Cl)CCC1N2C(=O)c1ccc(F)cc1.[Cl-] (stereo unspecified) | > 82.2
77 | O=C(Nc1ccc(Cl)c(C(F)(F)F)c1)c1ccncc1 | 38.7 (≈ 129 µM)
78 | O=C(c1ccc([N+](=O)[O-])cc1[N+](=O)[O-])n1cnc2ccccc21 | 22.9 (≈ 73.3 µM)
79 | NC(=S)N/N=C/c1c[nH]c2ccccc12 | > 32.7
80 | S=C(NCCCn1ccnc1)Nc1cccc(Cl)c1 | > 44.2
81 | CCc1nc(C(N)=O)c2[nH]c(=O)n(-c3ccccc3F)c2n1 | 10.2 (≈ 33.9 µM)
82 | CCCC1(c2ccccc2)NC(=O)N(C/C=C/Cl)C1=O (stereo unspecified) | > 43.9
83 | CCN(CC)C(=O)c1ccc(NC(=O)c2ccc3c(c2)NC(=O)CS3)cc1 | 6.2 (≈ 16.2 µM)
84 | CCN(CC)C(=O)Cn1cc(C(=O)C2CC2)c2ccccc21 | > 44.8
85 | C=CCNC(=S)N1CCN(C2CCCCC2)CC1 | > 40.1
86 | Cc1ccc(C(=O)N2CCN(c3cccc(C)c3C)CC2)o1 | 31.8 (≈ 107 µM)
